Tested on: Shewanella putrefaciens
Assay: Inhibitory effect of CO2 on growth and spoilage causing ability, inoculated fillets in modified atmosphere packaging
Conditions: stored in the presence of CO2, versus control group
Procedure: Pre-frozen Shewanella putrefaciens (stored at −80° C. or less) was thawed at 30±2° C., inoculated to 5-10 mL of TSB, and cultured under shaking for 12 h to obtain a primary culture solution.
The primary culture solution was inoculated into another TSB liquid medium at an inoculation amount of 1% by weight, which was cultured under shaking for 6 h to obtain a bacterial suspension with a concentration of 10^7 CFU/mL.
A large yellow croaker with a weight of 1000±50 g was processed, and cut into a plurality of 100-g slices, which were washed with 0-4° C. water, and dried to prepare a plurality of samples. The large yellow croaker was oxygenated in a foam box during the transportation, and processed by bloodletting, evisceration, and head removal.
The samples were immersed into a 75% ethanol solution for 30 s, washed with sterile distilled water 3 times, and subjected to ultraviolet sterilization for 20 min to obtain a plurality of sterilized samples, where a mass ratio of the ethanol solution to the samples was 3:1. The bacterial suspension was diluted to a concentration of 10^4 CFU/mL, and inoculated to the sterilized samples to obtain a plurality inoculated samples, where the diluted bacterial suspension was 10% by weight of each sterilized sample such that a bacterial concentration of each sterilized sample was lower than or equal to 10^5 CFU/mL. […]

O=C=O [CO2, carbon dioxide]
Growth and reproduction rate of the Shewanella putrefaciens: significantly lower than that of the control group

— US20220195379A1, “METHOD OF TESTTING INHIBITORY EFFECT OF CARBON DIOXIDE ON SPOILAGE CAUSING ABILITY OF SHEWANELLA PUTREFACIENS” (Shanghai Ocean University, priority 2022, published 2022)
